IC50 data for 16 compounds are collected here from BindingDB's records for patent US12180207 (Array Biopharma, 2024).

What is called IC50 is the concentration that gives 50% inhibition.

The target of experiment [1] is T1, Fibroblast growth factor receptor 1 (Homo sapiens, UniProt P11362). Put plainly: Enzyme Assay. The method, then:
(§1) he potency of compounds inhibiting human isoforms of FGFR kinase was determined using Life Technologies' Homogeneous Time Resolved Fluorescence (HTRF)-based binding assay technology. […] After a 60 minute incubation at 22° C., the extent of tracer displacement was determined using a PerkinElmer EnVision multimode plate reader via HTRF dual wavelength detection, and the percent of control (POC) was calculated using a ratiometric emission factor. One hundred POC was determined using no test compound, and 0 POC was determined in the presence of 1 μM of an appropriate control inhibitor.

The target of experiment [2] is T2, Fibroblast growth factor receptor 3 (Homo sapiens, UniProt P22607). As to the kind of experiment: Enzyme Assay. The method, then: as §1
Experiment [3] concerns the target T1, Fibroblast growth factor receptor 1. Put plainly: FGFR1 Enzyme Activity Assay. Here is the method: (§2) FGFR1 kinase activity was measured by the Invitrogen LanthaScreen™ Assay technology which directly measures the amount of substrate phosphorylation by Time-resolved fluorescence energy transfer (TR-FRET) using a fluorescently-labeled peptide and Europium-labeled antibody. […] After a 20 minutes incubation at 22° C., an equal volume of 2 nM LanthaScreen Eu-PY20 Antibody (Life Technologies Cat. No. PV5691) and 10 mM EDTA was added to quench the kinase reaction and start the detection reaction. After an additional 60 minute incubation at 22° C., the reaction was measured using a PerkinElmer EnVision multimode plate reader via TR-FRET dual wavelength detection, and the percent of control (POC) calculated using a ratiometric emission factor. 100 POC was determined using no test compounds and 0 POC was determined using no enzyme. The POC values were fit to a 4-parameter logistic curve as a function of the concentration of the compound, and the IC50 value is the point where the curve crosses 50 POC.

Experiment [4] addresses T3, Fibroblast growth factor receptor 2 (Homo sapiens, UniProt P21802). As to the kind of experiment: FGFR2 Enzyme Activity Assay. The method, then: as §2, with “FGFR2 kinase” for “FGFR1 kinase”, “by TR-FRET” for “by Time-resolved fluorescence energy transfer (TR-FRET)”, “20 minute” for “20 minutes”, “EDTA were” for “EDTA was”
Experiment [5] deals with T2, Fibroblast growth factor receptor 3. As to the kind of experiment: FGFR3 Enzyme Activity Assay. The method, then:
as §2, with “FGFR3 kinase” for “FGFR1 kinase”, “by TR-FRET” for “by Time-resolved fluorescence energy transfer (TR-FRET)”, “a 10 minute” for “a 20 minutes”, “EDTA were” for “EDTA was”

Experiment [6] concerns the target T3, Fibroblast growth factor receptor 2. As to the kind of experiment: Enzyme Assay. The method, then: as §1

T3 sequence (P21802 whole entry): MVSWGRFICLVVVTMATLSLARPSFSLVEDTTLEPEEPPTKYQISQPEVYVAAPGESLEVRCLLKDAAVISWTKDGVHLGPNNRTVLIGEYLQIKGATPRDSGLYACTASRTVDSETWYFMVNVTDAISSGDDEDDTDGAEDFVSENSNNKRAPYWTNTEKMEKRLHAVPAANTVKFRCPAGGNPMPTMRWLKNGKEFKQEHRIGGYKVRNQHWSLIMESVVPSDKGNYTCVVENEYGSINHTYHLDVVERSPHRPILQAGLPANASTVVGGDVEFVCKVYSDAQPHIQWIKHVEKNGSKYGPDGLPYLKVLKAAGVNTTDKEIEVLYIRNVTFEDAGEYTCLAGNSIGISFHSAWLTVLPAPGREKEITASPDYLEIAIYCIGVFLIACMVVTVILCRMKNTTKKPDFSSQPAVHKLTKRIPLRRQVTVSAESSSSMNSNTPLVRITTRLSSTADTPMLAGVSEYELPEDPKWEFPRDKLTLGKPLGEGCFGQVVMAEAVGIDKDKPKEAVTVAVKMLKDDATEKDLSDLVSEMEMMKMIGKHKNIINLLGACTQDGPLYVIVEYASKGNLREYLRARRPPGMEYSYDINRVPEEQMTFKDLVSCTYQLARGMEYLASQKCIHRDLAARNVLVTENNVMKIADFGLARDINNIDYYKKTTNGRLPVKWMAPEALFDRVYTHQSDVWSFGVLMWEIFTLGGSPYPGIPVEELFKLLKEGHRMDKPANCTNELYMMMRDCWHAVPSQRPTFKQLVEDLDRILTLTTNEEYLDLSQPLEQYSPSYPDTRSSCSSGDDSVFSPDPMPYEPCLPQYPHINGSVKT
T1 sequence (P11362 whole entry, canonical isoform): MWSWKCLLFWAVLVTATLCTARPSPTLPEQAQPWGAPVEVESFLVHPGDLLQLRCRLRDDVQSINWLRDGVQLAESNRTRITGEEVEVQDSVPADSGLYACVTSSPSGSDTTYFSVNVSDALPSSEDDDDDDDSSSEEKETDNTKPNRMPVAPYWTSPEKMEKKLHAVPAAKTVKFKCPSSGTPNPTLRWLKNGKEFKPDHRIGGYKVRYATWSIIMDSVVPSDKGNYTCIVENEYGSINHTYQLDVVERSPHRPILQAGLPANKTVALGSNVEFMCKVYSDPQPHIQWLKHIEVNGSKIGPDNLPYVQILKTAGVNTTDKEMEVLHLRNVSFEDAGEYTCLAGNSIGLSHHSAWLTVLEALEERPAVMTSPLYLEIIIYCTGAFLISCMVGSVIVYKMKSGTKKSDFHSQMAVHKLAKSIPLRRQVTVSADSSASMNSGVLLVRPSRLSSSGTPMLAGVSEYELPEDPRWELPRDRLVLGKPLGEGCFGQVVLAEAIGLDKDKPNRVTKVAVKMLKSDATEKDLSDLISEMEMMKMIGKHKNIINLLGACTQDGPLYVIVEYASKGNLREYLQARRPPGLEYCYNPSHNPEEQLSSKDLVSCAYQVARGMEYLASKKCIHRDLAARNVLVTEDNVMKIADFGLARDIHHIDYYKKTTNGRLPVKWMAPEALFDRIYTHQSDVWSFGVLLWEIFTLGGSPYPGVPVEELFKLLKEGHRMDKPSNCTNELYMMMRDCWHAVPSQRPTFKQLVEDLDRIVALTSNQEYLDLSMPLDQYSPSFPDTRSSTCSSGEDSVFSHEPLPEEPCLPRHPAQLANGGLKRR
T2 sequence (P22607 whole entry): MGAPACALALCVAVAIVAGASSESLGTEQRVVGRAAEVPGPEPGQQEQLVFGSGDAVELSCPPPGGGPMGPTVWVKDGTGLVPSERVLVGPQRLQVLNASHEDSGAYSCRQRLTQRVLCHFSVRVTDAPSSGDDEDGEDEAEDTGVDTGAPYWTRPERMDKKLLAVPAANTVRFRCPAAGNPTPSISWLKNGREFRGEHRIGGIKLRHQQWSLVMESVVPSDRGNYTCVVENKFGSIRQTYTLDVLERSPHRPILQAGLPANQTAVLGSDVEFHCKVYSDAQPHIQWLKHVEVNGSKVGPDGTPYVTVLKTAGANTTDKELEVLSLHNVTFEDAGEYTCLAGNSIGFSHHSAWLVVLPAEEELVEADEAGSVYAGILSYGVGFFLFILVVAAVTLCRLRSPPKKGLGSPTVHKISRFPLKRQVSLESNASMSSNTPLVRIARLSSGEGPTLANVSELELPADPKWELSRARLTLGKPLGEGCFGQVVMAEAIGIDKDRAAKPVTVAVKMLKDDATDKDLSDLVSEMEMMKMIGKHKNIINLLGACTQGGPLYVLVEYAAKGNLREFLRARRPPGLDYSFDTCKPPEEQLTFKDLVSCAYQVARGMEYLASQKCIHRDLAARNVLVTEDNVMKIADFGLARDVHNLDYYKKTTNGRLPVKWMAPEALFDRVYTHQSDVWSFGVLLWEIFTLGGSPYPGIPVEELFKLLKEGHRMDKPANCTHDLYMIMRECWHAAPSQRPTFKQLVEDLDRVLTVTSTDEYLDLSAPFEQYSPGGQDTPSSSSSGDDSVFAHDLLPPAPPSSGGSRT

With `C=CC(=O)N[C@H]1CCC[C@@H](C(=O)N2CCC(n3cc(-c4cc(OC)c5c(C#N)cnn5c4)cn3)CC2)C1` [US12180207, Example 19], the IC50 in experiment [1] is 56 nM; in experiment [2], 11 nM; in experiment [3], 20 nM; in experiment [4] it was 8 nM; in experiment [5], 7 nM.

Turning to `C=CC(=O)N[C@@H]1CC[C@H](C(=O)N2CCC(n3cc(-c4cc(OC)c5c(C#N)cnn5c4)cn3)CC2)C1` [US12180207, Example 32], the half-inhibitory concentration (IC50) in experiment [1] stood at 113 nM; in experiment [2] it was 31 nM; in experiment [3] it was 13 nM; in experiment [4], 4 nM; in experiment [5], 3 nM.

On to `C=CC(=O)N[C@H]1CC[C@@H](C(=O)N2CCC(n3cc(-c4cc(OC)c5c(C#N)cnn5c4)cn3)CC2)C1` [US12180207, Example 33], for which the IC50 is 20 nM in experiment [1], 3 nM in experiment [2], 4 nM in experiment [4] and 1 nM in experiment [5].

For `C=CC(=O)N[C@@H]1CC[C@@H](C(=O)N2CCC(n3cc(-c4cc(OC)c5c(C#N)cnn5c4)cn3)CC2)C1` [US12180207, Example 34], the IC50 turned out to be 231 nM in experiment [1]; 36 nM in experiment [2]; 19 nM in experiment [3]; 5 nM in experiment [4]; 2 nM in experiment [5].

With `C=CC(=O)N[C@H]1CC[C@H](C(=O)N2CCC(n3cc(-c4cc(OC)c5c(C#N)cnn5c4)cn3)CC2)C1` [US12180207, Example 35], the IC50 was 119 nM in experiment [1]; 23 nM in experiment [2]; 19 nM in experiment [3]; 5 nM in experiment [4]; 3 nM in experiment [5].

Turning to `C=CC(=O)Nc1ccc(S(=O)(=O)N2CCC(n3cc(-c4cc(OC)c5c(C#N)cnn5c4)cn3)CC2)cc1` [US12180207, Example 49], the concentration for half-maximal inhibition (IC50) in experiment [1] stood at 113 nM; in experiment [2], 13 nM; in experiment [3], 43 nM; in experiment [5], 5 nM.

As to `C=CC(=O)N[C@H]1CC[C@H](C(=O)N2CC(n3cc(-c4cc(OC)c5c(C#N)cnn5c4)cn3)C2)C1` [US12180207, Example 77], the IC50 came to 393 nM in experiment [1]; 118 nM in experiment [2]; 35 nM in experiment [3]; 12 nM in experiment [4]; 11 nM in experiment [5].

Turning to `C=C(F)C(=O)N1CC(C(=O)N2CCC(n3cc(-c4cc(OC)c5c(C#N)cnn5c4)cn3)CC2)C1` [US12180207, Example 140], the IC50 in experiment [1] was 37 nM; in experiment [6], 19 nM; in experiment [2], 7 nM; in experiment [3], 21 nM; in experiment [4] it was 2 nM; in experiment [5], 4 nM.

Consider `COc1cc(-c2cnn(C3CCN(C(=O)C4CN(C(=O)/C=C/CF)C4)CC3)c2)cn2ncc(C#N)c12` [US12180207, Example 142], for which the IC50 in experiment [1] came out at 36 nM; in experiment [6], 16 nM; in experiment [2], 5 nM; in experiment [3] it was 20 nM; in experiment [4], 3 nM.

On to `COc1cc(-c2cnn(C3CCN(C(=O)/C=C/CN(C)C)CC3)c2)cn2ncc(C#N)c12` [US12180207, Example 144], for which the IC50 in experiment [1] amounted to 276 nM; in experiment [2] it was 24 nM; in experiment [3] it was 11 nM; in experiment [4], 5 nM; in experiment [5] it was 4 nM.

Turning to `COc1cc(-c2cnn(C3CN(CC4CN(C(=O)/C=C/CN(C)C)C4)C3)c2)cn2ncc(C#N)c12` [US12180207, Example 148], the IC50 in experiment [1] amounted to 217 nM; in experiment [2], 14 nM; in experiment [3] it was 47 nM; in experiment [4], 6 nM; in experiment [5], 4 nM.

Take `COc1cc(-c2cnn(C3CN(C(=O)C4CN(C(=O)/C=C/CN(C)C)C4)C3)c2)cn2ncc(C#N)c12` [US12180207, Example 150]: the half-maximal inhibitory concentration (IC50) is 229 nM in experiment [1]; 22 nM in experiment [2]; 8 nM in experiment [3]; 6 nM in experiment [4]; 7 nM in experiment [5].

In the case of `C=CS(=O)(=O)N[C@H]1CC[C@H](C(=O)N2CCC(n3cc(-c4cc(OC)c5c(C#N)cnn5c4)cn3)CC2)CC1` [US12180207, Example 187], the IC50 is 31 nM in experiment [1], 4 nM in experiment [2], 17 nM in experiment [3] and 5 nM in experiment [4].

Take `C=CS(=O)(=O)N[C@H]1C[C@@H](C(=O)N2CCC(n3cc(-c4cc(OC)c5c(C#N)cnn5c4)cn3)CC2)C1` [US12180207, Example 193]: the values for the concentration for half-maximal inhibition (IC50) in experiment [1] and in experiment [3] were 36 nM and 7 nM, respectively.

In the case of `C=CS(=O)(=O)N[C@H]1C[C@H](C(=O)N2CCC(n3cc(-c4cc(OC)c5c(C#N)cnn5c4)cn3)CC2)C1` [US12180207, Example 194], the IC50 amounted to 93 nM in experiment [1] and 13 nM in experiment [3].

`C=CS(=O)(=O)Nc1ccc(C(=O)N2CCC(n3cc(-c4cc(OC)c5c(C#N)cnn5c4)cn3)CC2)cc1` [US12180207, Example 196]: the IC50 was determined as 31 nM in experiment [1]; 3 nM in experiment [2]; 10 nM in experiment [3]; 8 nM in experiment [4]; 2 nM in experiment [5].
